This passage reports GFAP expression, Nestin expression and Tuj1-positive cells results from patent US12508286B2, “Composition for treating spinal cord injury, comprising stem cells treated with novel compound” (YJ CERAPEUTICS INC., priority 2019, dated 2025).

For this test, the system named is MSCs. The test can be described thus: Stem cell differentiation confirmed with neural lineage markers. It counts as cell-based. As to conditions: MSCs cultured in a medium containing the compound for 5 days. The method, then:
Referring to FIGS. 3 and 4, MSCs were cultured in a medium containing the compound for 5 days, and the differentiation status was confirmed using a neural lineage marker. As a result.
MSCs of passage 3 received from Kangstem Biotech were maintained in a KSB3 basal medium containing 10% FBS (Gibco) and supplements.
After passage 1, MSCs of passage 4 were stocked and stored in liquid nitrogen.
Referring to FIG. 1, MSCs of passage 5 were seeded at 1 mL per well in 12 wells diluted to 1.1×10^4/mL.
After 4 hours, the cells were treated with 40 μM of L1 or L3 or 30 μM of L2 (Formula 1).
After three days, the medium was changed with a new medium, and the cells were treated with the compound in the same manner and then additionally cultured for two days.

The structures appear in SMILES notation.

In the case of `CCc1ccc(N(C(=O)COC)c2nc3cc(Cl)ccc3o2)cc1` [L2, N-(5-Chlorobenzo[d]oxazol-2-yl)-N-(4-ethylphenyl)-2-methoxyacetamide], the GFAP expression result was “hardly expressed”, the Nestin expression entry is recorded as “hardly expressed” and the Tuj1-positive cells is recorded as no less than 90%.
